Experimental data taken from patent US20140171415A1, “FUNNY CURRENT (IF) INHIBITORS FOR USE IN A METHOD OF TREATING AND PREVENTING HEART DISEASE IN CANINE” (Boehringer Ingelheim Vetmedica GmbH, priority 2012, published 2014).

How the values were obtained:
Ih channel = conditions: literature: Neuroscience 1994 (zatebradine), British Journal of Pharmacology 1998 (cilobradine); cited from earlier work
anesthetized dogs = assay: Cardiovascular and electrocardiographic effects in anesthetized dogs; format: in vivo, dog
Experimental: Cardiovascular and Electrocardiographic Effects of Cilobradine (DKAH 3 CL) in Dogs:
The dose of 0.05 mg/kg reduced spontaneous HR by 23% whereas 0.1 mg/kg i.v. reduced HR by 42%. Systolic and diastolic pressure was not affected. The effective refractory times of the sinus and atrioventricular (AV) node increased with 0.05 mg/kg by 31% and 30% respectively.

[1] = tested on: conscious, chronically instrumented dogs; assay: Hemodynamic action in conscious, chronically instrumented dogs; format: in vivo, dog; conditions: 2.5 mg/kg orally
Excerpt: Hyodynamic Action in Conscious, Chronically Instrumented Dogs:
HR dropped by up to 40% while blood pressure was not affected. Left ventricular end-diastolic pressure rose. This effect on preload may be explained by prolongation of the filling period due to prolongation of diastolic duration. Renal blood flow was maintained and coronary blood flow decreased by up to 40% most likely as a consequence of a drop in myocardial oxygen demand.

conscious dogs = assay: Heart rate and arterial blood pressure by telemetry in conscious dogs; format: in vivo, dog
Experimental: Heart rate (HR) and arterial blood pressure (BP) were measured in conscious dogs using telemetry methodology. They received daily oral doses of 0.3 mg/kg over 5 days. HR measured prior drug administration was reduced from 64.0±6.81 beats per minute (bpm) to 50.5±5.54 bpm on day 5. maximal effect on HR were seen between 1.5 and 3.5 hours post-dosing and HR reached values between 45 and 53 bpm. No effect on arterial BP was seen.

[2] = Lipophilicity profile of the active substance; format: physicochemical; conditions: neutral pH versus acidic pH
Excerpt: Usually, EC/HPMC films show a sustained release behavior that is independent of pH. […] This, together with the coating applied, may have led to a slower release.

healthy Beagle dogs = assay: Radiotelemetric pharmacodynamic study, repeated once and twice daily oral administration; format: in vivo, dog; conditions: for minimum of the first derivative of the left ventricular pressure against time (LVdP/dtmin) / maximum of the first derivative of the left ventricular pressure against time (LVdP/dtmax) / decrease of heart rate: healthy Beagle dogs; for minimum of the first derivative of the left ventricular pressure against time (LVdP/dtmin): from −2700 mmHg/s; for maximum of the first derivative of the left ventricular pressure against time (LVdP/dtmax): increased from 2700 mmHg/s; for decrease of heart rate: 0.3 mg/kg bodyweight oral, 2 mg/ml oral suspension
Experimental: A Radiotelemetric Study to Evaluate the Pharmacodynamic Effects of Cilobradine HCl 2 Mg/Ml Oral Suspension after Repeated Once and Twice Daily Oral Administration to Healthy Beagle Dogs
Cilobradine HCl 2 mg/ml oral suspension was given once or twice daily at doses of 0.3 mg/kg bodyweight to conscious, healthy Beagle dogs chronically implanted with a telemetry system. Heart rate, systolic blood pressure, diastolic blood pressure, aortic pressure, left ventricular pressure, electrocardiogram (ECG), and body temperature were recorded. Before each treatment sequence all dogs underwent a 24 hour pre-dosing measurement which served as a baseline (control) measurement. After dosing the dogs were left undisturbed for the duration of the study, which lasted 24 hours, with the exception of the second dosing 10-12 hours after the first treatment.

[3] = 0.3 mg/kg bodyweight once daily and twice daily in comparison to control
[4] = 0.3 mg/kg bodyweight once daily
[5] = 0.3 mg/kg bodyweight twice daily

SMILES: COc1ccc(CCN(C)CCCN2CCc3cc(OC)c(OC)cc3CC2=O)cc1OC [zatebradine, reference compound]
- effect on the Ih channel (Ih channel): can also be blocked

SMILES: COc1ccc(CCN2CCC[C@H](CN3CCc4cc(OC)c(OC)cc4CC3=O)C2)cc1OC [Cilobradine, (+)-3-[(N-(2-(3,4-dimethoxy-phenyl)ethyl)-piperidin-3-(S)-yl)-methyl]-(7,8-dimethoxy-1,3,4,5-tetrahydro-2H-3-benzazepin-2-on)]
- increase of effective refractory time of the atrioventricular (AV) node (anesthetized dogs; 0.05 mg/kg i.v.): 30%
- increase of effective refractory time of the sinus node (anesthetized dogs; 0.05 mg/kg i.v.): 31%
- reduction of spontaneous HR (anesthetized dogs; 0.05 mg/kg i.v.): 23%
- reduction of spontaneous HR (anesthetized dogs; 0.1 mg/kg i.v.): 42%
- systolic and diastolic pressure (anesthetized dogs; 0.05 or 0.1 mg/kg i.v.): not affected
- effect on the Ih channel (Ih channel): can also be blocked
- blood pressure [1]: not affected
- decrease of coronary blood flow [1]: up to 40%
- drop of HR [1]: up to 40%
- left ventricular end-diastolic pressure [1]: rose
- renal blood flow [1]: maintained
- effect on arterial BP (conscious dogs; daily oral 0.3 mg/kg over 5 days): No effect
- HR measured prior drug administration on day 5 (conscious dogs; daily oral doses of 0.3 mg/kg over 5 days, reduced from 64.0±6.81 bpm): 50.5±5.54 bpm

SMILES: COc1ccc(CCN2CCC[C@H](CN3CCc4cc(OC)c(OC)cc4CC3=O)C2)cc1OC.Cl [cilobradine HCl, (+)-3-[(N-(2-(3,4-dimethoxy-phenyl)ethyl)-piperidin-3-(S)-yl)-methyl]-(7,8-dimethoxy-1,3,4,5-tetrahydro-2H-3-benzazepin-2-on hydrochloride)]
- lipophilicity profile [2]: slightly more lipophilic at neutral pH values
- inotropic effect (FIG. 1) (healthy Beagle dogs; [3]): positive inotropic effect
- lusitropic effect (FIG. 2) (healthy Beagle dogs; [3]): positive lusitropic effect
- minimum of the first derivative of the left ventricular pressure against time (LVdP/dtmin) (healthy Beagle dogs; [4]): −3000 mmHg/s
- maximum of the first derivative of the left ventricular pressure against time (LVdP/dtmax) (healthy Beagle dogs; [4]): 3000 mmHg/s
- decrease of heart rate (healthy Beagle dogs; repeated once daily): approximately 25%
- decrease of heart rate (healthy Beagle dogs; repeated twice daily): ~30%
- minimum of the first derivative of the left ventricular pressure against time (LVdP/dtmin) (healthy Beagle dogs; [5]): −3550 mmHg/s
- maximum of the first derivative of the left ventricular pressure against time (LVdP/dtmax) (healthy Beagle dogs; [5]): 3550 mmHg/s
